In US7658937B2, “Anthraquinones and process for the preparation and method of use thereof” (Board of Trustees of Michigan State University, priority 2004, dated 2010):

Assays:
[1] = system: female B. malayi adult worms; assay: Antifilarial activity against female adult worms at 5 ppm (Example 3); assay type: cell-based, Brugia malayi; settings: monitored for 20 days
Description: (§1) Live adult male and female B. malayi were obtained from John McCall, University of Georgia, Athens, Ga. (NIH Subcontract). Adult worms were transferred to 6 well plates (3 worms, male or female per well) containing fresh RPMI 1640 culture medium supplemented with L-glutamine and penicillin/streptomycin. Anthraquinones were dissolved separately in 100% DMSO (4mg/ml) and diluted with RPMI media to obtain a final concentration of 5 ppm. Duplicate control groups received 2.5% DMSO or no DMSO. Every 48 h, the medium from each well was removed and replaced with fresh RPMI with or without drug in DMSO. The movement and mortality of the filarial were monitored every 24 h for 20 days. All B. malayi worms in control wells were fully motile throughout the study and the worms treated with anthraquinones were dead.

[2] = system: male B. malayi adult worms; assay: Antifilarial activity against male adult worms at 5 ppm (Example 3); assay type: cell-based, Brugia malayi; settings: monitored for 20 days
Description: as §1

[3] = system: B. malayi Microfilaria; assay: Antifilarial activity against microfilaria at 5 ppm (Example 3); assay type: cell-based, Brugia malayi
[4] = system: adult female filarial (Brugia malayi) worms; assay: Mortality and inhibition of motility of adult female filarial worms at 5 ppm (Example 2); assay type: cell-based; settings: for time to 100% mortality: adult female worms
Text: (§2) A collection of 100 adult female Brugia malayi were obtained through an NIH subcontract from Dr. John McCall, University of Georgia in order to test the efficacy of anthraquinones as antifilarial agents. Three worms per well were transferred to 6 well plates containing fresh RPMI 1640 culture medium supplemented with L-glutamine and penicillin/streptomycin. […] Duplicate control groups received 2% DMSO or no DMSO. The medium was removed and replaced with fresh RPMI with or without drug in DMSO every 48 h. The movement and viability of the adult worms were monitored every 24 h till 10 days. The B. malayi worms in control wells were fully motile till the end of 10th day and the worms treated with anthraquinones were dead.
The anthraquinones A, B, D, E, F, J, Q and R, selected randomly, were assayed against adult female filarial (Brugia malayi) worms for mortality and inhibition of motility. […] Other anthraquinones tested gave 100% mortality between 3-10 days (Table 3)

[5] = system: adult female and male B. malayi; assay: Morphology of H & E stained sections of killed adult worms (FIGS. 6-9); assay type: cell-based, Brugia malayi; settings: killed by 5 ppm, H & E stain
Text: FIG. 6 is a cross-sectional view of H & E stained normal control adult female Brugia malayi. Normal duplicate intrauterine structures contains many well-formed microfilaria larvae that have not yet been released from the uterus. Magnification×400. Calibration mark indicates 100 microns in FIGS. 6-9).
FIG. 7 is a longitudinal sectional view of normal adult male B. malayi. […] Magnification×40.

[6] = system: B. Malayi adult worms; assay: Dose response of active anthraquinones against adult worms (50 to 3.12 ppm); assay type: cell-based, Brugia malayi
Text: as §2
Te assay was repeated with anthraquinones B, F, J and R since they killed the worms quickly compared to the other anthraquinones tested.

[7] = system: Schistosoma mansoni; settings: naturally occurring anthraquinone from daylily roots; Cichewicz et al. 2002; cited from earlier work
[8] = system: human filarial parasite, B.malayi; assay: Activity of daylily anthraquinone against human filarial parasite; design: species or system Brugia malayi

SMILES | 100% Mortality of female B. malayi [1] | 100% Mortality of Microfilaria (Days)* [3] | 100% Mortality of B. Malayi ([4]; adult worms) | also measured
CCCSc1ccc2nc(NC(=O)OC)[nH]c2c1 [Albendazole, reference compound] | 16 days | No Mortality | 16 days | 100% Mortality of male B. malayi [2]: 9 days
O=C1c2ccccc2C(=O)c2c1ccc(O)c2O [Anthraquinone A, 1,2-Dihydroxy anthraquinone] | 5 days | 3 days | 11 days | –
Cc1cc2c(c(O)c1O)C(=O)c1ccccc1C2=O [Anthraquinone B, 1,2-Dihydroxy-3-methyl anthraquinone] | 5 days | 3 days | 5 days | 100% Mortality of male B. malayi [2]: 6 days; morphology of adult female B. malayi, cross-section [5]: disruption of the stable cuticle and hypodermal regions, along with disorganization of the intrauterine microfilariae; morphology of adult male B. malayi, longitudinal section [5]: marked loss of cellularity in hypodermal and deeper structures; time to 100% mortality [4]: 24 h; 100% Mortality of B. Malayi ([6]; 3.125 ppm): 6 days; 100% Mortality of B. Malayi ([6]; 6.25 ppm): 5 days; 100% Mortality of B. Malayi ([6]; 12.5 ppm): 4 days; 100% Mortality of B. Malayi ([6]; 25 ppm): 3 days; 100% Mortality of B. Malayi ([6]; 50 ppm): 1 days
Cc1c(O)c(O)cc2c1C(=O)c1ccccc1C2=O [Anthraquinone C, 1-Methyl-2,3-dihydroxy anthraquinone] | 7 days | 3 days | 7 days | –
O=C1c2ccccc2C(=O)c2c(O)cc(O)cc21 [Anthraquinone D, 1,3-Dihydroxy anthraquinone] | – | No Mortality | – | 100% Mortality of female B. malayi (Days) [1]: No Mortality; 100% Mortality of B. malayi (Days) ([4]; adult worms): No activity
O=C1c2ccccc2C(=O)c2c(O)ccc(O)c21 [Anthraquinone E, 1,4-Dihydroxy anthraquinone] | 10 days | No Mortality | 10 days | –
O=C1c2ccccc2C(=O)c2c1cc(O)c(O)c2O [Anthraquinone F, 1,2,3-Trihydroxy anthraquinone] | 5 days | 3 days | 5 days | 100% Mortality of B. Malayi ([6]; 3.125 ppm): 5 days; 100% Mortality of B. Malayi ([6]; 6.25 ppm): 5 days; 100% Mortality of B. Malayi ([6]; 12.5 ppm): 4 days; 100% Mortality of B. Malayi ([6]; 25 ppm): 4 days; 100% Mortality of B. Malayi ([6]; 50 ppm): 2 days
O=C1c2cc(O)c(O)cc2C(=O)c2c(O)cccc21 [Anthraquinone G, 2,3,5-Trihydroxy anthraquinone] | 5 days | 3 days | 5 days | –
O=C1c2ccc(O)c(O)c2C(=O)c2cccc(O)c21 [Anthraquinone H, 1,2,5-Trihydroxy anthraquinone] | 9 days | 3 days | 9 days | –
O=C1c2cccc(O)c2C(=O)c2c1ccc(O)c2O [Anthraquinone I, 1,2,8-Trihydroxy anthraquinone] | 14 days | 3 days | 14 days | –
Cc1cc2c(c(O)c1O)C(=O)c1c(O)cccc1C2=O [Anthraquinone J, 1,2,8-Trihydroxy-3-methyl anthraquinone] | 5 days | 3 days | 5 days | 100% Mortality of male B. malayi [2]: 5 days; activity against Schistosoma mansoni [7]: significant activity; time to 100% mortality [4]: 48 h; 100% Mortality of B. malayi (Days) ([6]; 3.125 ppm): No Mortality; 100% Mortality of B. Malayi ([6]; 6.25 ppm): 5 days; 100% Mortality of B. Malayi ([6]; 12.5 ppm): 4 days; 100% Mortality of B. Malayi ([6]; 25 ppm): 3 days; 100% Mortality of B. Malayi ([6]; 50 ppm): 2 days; activity against human filarial parasite B.malayi [8]: active
Cc1c(O)c(O)cc2c1C(=O)c1c(O)cccc1C2=O [Anthraquinone K, 1-Methyl-2,3,8-trihydroxy anthraquinone] | 3 days | 1 days | 3 days | 100% Mortality of male B. malayi [2]: 5 days
O=C1c2cc(O)cc(O)c2C(=O)c2cccc(O)c21 [Anthraquinone L, 1,3,5-Trihydroxy anthraquinone] | 7 days | 3 days | 7 days | –
O=C1c2cccc(O)c2C(=O)c2c(O)ccc(O)c21 [Anthraquinone M, 1,4,8-Trihydroxy anthraquinone] | 9 days | 5 days | 9 days | –
O=C1c2cc(O)c(O)c(O)c2C(=O)c2cccc(O)c21 [Anthraquinone N, 1,2,3,-5-Tetrahydroxy anthraquinone] | 5 days | 3 days | 5 days | 100% Mortality of male B. malayi [2]: 6 days
COc1c(C)cc2c(c1O)C(=O)c1ccccc1C2=O [Anthraquinone O, 1-Hydroxy-2-methoxy-3-methyl anthraquinone] | – | No Mortality | – | 100% Mortality of female B. malayi (Days) [1]: No Mortality; 100% Mortality of B. malayi (Days) ([4]; adult worms): No activity
COc1c(C)cc2c(c1OC)C(=O)c1ccccc1C2=O [Anthraquinone P, 1,2-Dimethoxy-3-methyl anthraquinone] | 11 days | No Morality | 11 days | –
COc1c(C)cc2c(c1O)C(=O)c1c(O)cccc1C2=O [Anthraquinone Q, 1,8-Dihydroxy-2-methoxy-3-methyl anthraquinone] | – | No Mortality | – | 100% Mortality of female B. malayi (Days) [1]: No Mortality; 100% Mortality of B. malayi (Days) ([4]; adult worms): No activity
COc1cccc2c1C(=O)c1c(cc(C)c(OC)c1O)C2=O [Anthraquinone R, 1-Hydroxy-2,8-dimethoxy-3-methyl anthraquinone] | 7 days | No Mortality | 7 days | time to 100% mortality [4]: 24 h; 100% Mortality of B. malayi (Days) ([6]; 3.125 ppm): No Mortality; 100% Mortality of B. Malayi ([6]; 6.25 ppm): 8 days; 100% Mortality of B. Malayi ([6]; 12.5 ppm): 4 days; 100% Mortality of B. Malayi ([6]; 25 ppm): 2 days; 100% Mortality of B. Malayi ([6]; 50 ppm): 1 days
COc1cc2c(c(C)c1OC)C(=O)c1c(O)cccc1C2=O [Anthraquinone S, 1-Methyl-2,3-dimethoxy-8-hydroxy anthraquinone] | 9 days | No Mortality | 9 days | activity ([4]; adult worms, at 9 days): 50%
